Assay results published in US20060014723A1, “Anti-parasitic uses of borinic acid complexes” (priority 2004, published 2006).
In brackets after ≈: the same amount, converted by molar mass.

What was measured:
P. falciparum K1 = test: Malaria in vitro screening model (3H-hypoxanthine incorporation); type: cell-based, Plasmodium falciparum; conditions: for IC50: Plasmodium falciparum, K1
Description: […] P. falciparum K1 is used in this study. K1 (a clone originating from Thailand) is resistant to chloroquine and pyrimethamine. The strains are maintained in RPMI 1640 medium with 0.36 mM hypoxanthine, supplemented with 25 mM N 2-hydroxyethyipiperazine-N-2-ethane-sulphonic acid (HEPES), 25 mM NaHCO3, neomycin (100 U/mL) and 5 g/L of ALBUMAX® II (lipid-rich bovine serum albumin, GIBCO, Grand Island, N.Y., USA), together with 5% washed human A+ erythrocytes. All cultures and assays are conducted at 37° C. under an atmosphere of 4% CO2, 3% O2 and 93% N2. Cultures are kept in incubation chambers filled with the gas mixture. Subcultures are diluted to a parasitemia of between 0.1 and 0.5% and the medium is changed daily.
Antimalarial activity is assessed using an adaptation of the procedures described by Desjardins et al. (Antimicrob. Agents Chemother. 16:710-718, 1979), and Matile and Pink (In: Lefkovits, I. and Pernis, B. (Eds.), Immunological Methods Vol. IV, Academic Press, San Diego, pp. 221-234, 1990).
Stock drug solutions are prepared in 100% dimethylsulfoxide (DMSO) at 10 mg/mL, and heated or sonicated if necessary to dissolve the sample. After use, the stocks are kept at −20° C. For the assays, the compound is further diluted in serum-free culture medium and finally to the appropriate concentration in complete medium without hypoxanthine.
Assays are performed in sterile 96-well microtiter plates, each well containing 200 μl of parasite culture (0.15% parasitemia, 2.5% hematocrit) with or without serial drug solutions. Seven 2-fold dilutions are used, covering a range from […] to 0.078 μg/mL. For active compounds the highest concentration is lowered (e.g., to […]); for plant extracts the highest concentration is increased to 50 μg/mL. […] After 48 hours of incubation at 37° C., 0.5 μCi ^3H-hypoxanthine is added to each well. Cultures are incubated for a further 24 h before being harvested onto glass-fiber filters and washed with distilled water. The radioactivity is counted using a Betaplate liquid scintillation counter (Wallac, Zurich, Switzerland). The results are recorded as counts per minute per well at each drug concentration and expressed as percentage of the untreated controls. IC50 values are calculated from the sigmoidal inhibition curves using Microsoft EXCEL.

[1] = test system: T. b. rhodesiense STIB 900; test: African sleeping sickness in vitro screening model (Alamar Blue); type: cell-based, Trypanosoma brucei rhodesiense; conditions: for IC50: Trypanosoma brucei
Method in brief: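 Bloodstream-form trypomastigotes, 8×10^3/well, were grown in supplemented MEM with 15% horse serum, without hypoxanthine, at 37 °C in 5% CO2. They were exposed for 72 h to seven 3-fold dilutions from 90 to 0.123 μg/mL. Resazurin (Alamar Blue) was added for 2 h, fluorescence read at ex 536/em 588 nm, and IC50 taken as the mean of four values.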

[2] = test system: Trypanosoma cruzi Tulahuen C2C4 strain; test: Chagas disease in vitro screening model (beta-galactosidase strain in L-6 cells); type: cell-based; conditions: for IC50: Trypanosoma cruzi, TULAHUEN, L6, read-out: T. cruzi IC50
Method in brief: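 L-6 rat myoblasts in RPMI 1640/10% FBS at 37 °C were infected with 5×10^3 lacZ-expressing T. cruzi Tulahuen C2C4 trypomastigotes. CPRG/Nonidet substrate was read at 540 nm, and IC50 came from sigmoidal curves.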

[3] = test system: Leishmania donovani strain MHOM/ET1671L82; test: Leishmaniasis in vitro screening model (axenic amastigotes, Alamar Blue); type: cell-based; conditions: for IC50: Leishmania donovani, read-out: L. donovani IC50
Method in brief: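 Axenic L. donovani amastigotes (10^5 per well) from hamster spleen, grown at 37° C in SM medium pH 5.4 with 10% FBS, 5% CO2, exposed to serial 3-fold compound dilutions (30 to 0.041 μg/mL) for 72 h. Alamar Blue added for 2 h, fluorescence read (ex 536/em 588 nm); IC50 from sigmoidal curve versus control cultures.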

SMILES | IC50 (P. falciparum K1) [µg/mL] | IC50 [1] [µg/mL] | IC50 [2] [µg/mL] | IC50 [3] [µg/mL] | P. falciparum IC50 (P. falciparum K1) [µg/mL] | T. b. rhodesiense IC50 [1] [µg/mL] | T. cruzi IC50 [2] [µg/mL] | L. donovani IC50 [3] [µg/mL]
Fc1cccc(C=CBOc2cccc3cccnc23)c1 [Compound 39, (3-Fluorophenyl)vinyl borinic acid quinolin-8-yl ester] | 122 (≈ 440 µM) | 0.201 (≈ 0.725 µM) | 1.41 (≈ 5.09 µM) | 0.34 (≈ 1.23 µM) |  |  |  | 
Fc1ccc(F)c(B(Oc2cccc3cccnc23)c2ccc(Cl)cc2)c1 [Compound 40, (4-Chlorophenyl)(2,5-difluorophenyl)borinic acid quinolin-8-yl ester] | 1.72 (≈ 4.53 µM) | 0.295 (≈ 0.777 µM) | 0.89 (≈ 2.34 µM) | 0.59 (≈ 1.55 µM) |  |  |  | 
COc1ccc(B(Oc2cccc3cccnc23)c2ccc(Cl)cc2)cc1F [Compound 41, (4-Chlorophenyl)(3-fluoro-4-methoxyphenyl)borinic acid quinolin-8-yl ester] | 1.63 (≈ 4.16 µM) | 0.38 (≈ 0.97 µM) | 0.935 (≈ 2.39 µM) | 0.29 (≈ 0.74 µM) |  |  |  | 
Fc1cccc(B(Oc2cccc3cccnc23)c2ccc(Cl)cc2)c1F [Compound 42, (4-Chlorophenyl)(2,3-difluorophenyl)borinic acid quinolin-8-yl ester] | 1.83 (≈ 4.82 µM) | 0.47 (≈ 1.24 µM) | 1.04 (≈ 2.75 µM) | 0.43 (≈ 1.13 µM) |  |  |  | 
Fc1cccc(B(Oc2cccc3cccnc23)c2ccc(Cl)cc2F)c1 [Compound 43, (4-Chloro-2-fluorophenyl)(3-fluorophenyl)borinic acid quinolin-8-yl ester] | 1.83 (≈ 4.82 µM) | 0.4 (≈ 1.05 µM) | 0.825 (≈ 2.17 µM) | 0.02 (≈ 0.0527 µM) |  |  |  | 
Fc1cc(F)cc(B(Oc2cccc3cccnc23)c2ccc(Cl)cc2)c1 [Compound 44, (4-Chlorophenyl)(3,5-difluorophenyl)borinic acid quinolin-8-yl ester] | 1.87 (≈ 4.93 µM) | 0.275 (≈ 0.724 µM) | 0.71 (≈ 1.87 µM) | 0.5 (≈ 1.32 µM) |  |  |  | 
COc1cc(B(Oc2cccc3cccnc23)c2cccc(F)c2)ccc1Cl [Compound 45, (4-Chloro-3-methoxyphenyl)(3-fluorophenyl)borinic acid quinolin-8-yl ester] | 1.84 (≈ 4.7 µM) | 0.48 (≈ 1.23 µM) | 1.15 (≈ 2.92 µM) | 0.5 (≈ 1.28 µM) |  |  |  | 
Fc1cc(B(Oc2cccc3cccnc23)c2ccc(Cl)cc2)cc(C(F)(F)F)c1 [Compound 47, (4-Chlorophenyl)(3-fluoro-5-trifluoromethylphenyl)borinic acid quinolin-8-yl ester] | 2.07 (≈ 4.82 µM) | 0.5 (≈ 1.16 µM) | 1.7 (≈ 3.96 µM) | 0.51 (≈ 1.19 µM) |  |  |  | 
C=CB(Oc1cccc2cccnc12)c1cccnc1 [Compound 49, (3-Pyridyl)vinylborinic acid 8-hydroxyquinoline ester] |  |  |  |  | 1.58 | 0.2185 | 1.345 | 0.45
Nc1cccc(C(=O)OB(c2ccc(Cl)cc2)c2ccc(Cl)cc2)n1 [Compound 50] |  |  |  |  | 0.6115 | 9.45 | 0.135 | 0.23
Cc1ccc(B(OC(=O)c2ncccc2O)c2ccc(C)c(Cl)c2)cc1Cl [Compound 69] |  |  |  |  | 2.449 | 16.5 | 3.35 | 0.22
O=C(OB(c1cccnc1)c1cccc(Cl)c1)c1ncccc1O [Compound 70] |  |  |  |  | >5 | 38.3 | 28.2 | 18.3
COC(=O)c1cccnc1C(=O)OB(c1ccc(C)c(Cl)c1)c1ccc(C)c(Cl)c1 [Compound 73] |  |  |  |  | 2.997 | 21.3 | 7.2 | 0.63
O=C(O)CCCOc1cccnc1C(=O)OB(c1cccc(Cl)c1)c1cccc(Cl)c1 [Compound 75] |  |  |  |  | 0.494 | 31.1 | 8.9 | 0.61
O=C(OB(c1ccc(Cl)cc1)c1ccc(Cl)cc1)c1ncccc1OCCN1CCOCC1 [Compound 76] |  |  |  |  | 3.81 | 19.8 | 4.05 | 2
O=C(OB(c1cccc(Cl)c1)c1cccc(Cl)c1)c1ncccc1OCCN1CCOCC1 [Compound 77] |  |  |  |  | 1.225 | 17.2 | 5.15 | 1.1
Cc1ccc2c(Cl)cc(Cl)c(OB(c3ccc(Cl)cc3)c3ccc(Cl)cc3)c2n1 [Compound 80] |  |  |  |  | 1.71 | 1.06 | 1.315 | 0.12
CC1(C)COC(c2cccc(B(Oc3c(Cl)cc(Cl)c4cccnc34)c3cccc(F)c3)c2)=N1 [Compound 81] |  |  |  |  | 3.355 | 1.9 | 4.2 | 0.18
C=CB(Oc1c(Cl)cc(Cl)c2ccc(C)nc12)c1cccnc1 [Compound 82] |  |  |  |  | 2.647 | 1.19 | 1.95 | 0.22
C=CB(Oc1c(N(C)C)cc(Cl)c2cccnc12)c1ccnc(Cl)c1 [Compound 83] |  |  |  |  | 0.979 | 0.715 | 0.77 | 1.1
C=CB(Oc1c(Cl)cc(Cl)c2ccc(C)nc12)c1cccc(N(C)C)c1 [Compound 84] |  |  |  |  | 2.364 | 0.915 | 1.7 | 0.16
CSc1cccc(B(Oc2cccc3cccnc23)c2cccc(SC)c2)c1 [Compound 87] |  |  |  |  | 4.632 | 0.3 | 3.2 | 0.39
Fc1cc(B(Oc2cccc3cccnc23)c2ccc(Cl)c(F)c2)ccc1Cl [Compound 89] |  |  |  |  | 1.385 | 0.41 | 1.36 | 0.38
